Results as given in patent US8518945B2, “Pyrrolopyrazine kinase inhibitors” (Hoffmann-La Roche Inc., priority 2010, dated 2013).

Assays:
[1] = target: T1, h-jak3(810-1124) (JAK3: Recombinant human kinase domain) (Homo sapiens, UniProt P52333); test: Determination of IC50 of Janus Kinase (JAK) inhibition: JAK3 radioactive end-point 33P-ATP kinase assay; assay type: biochemical; conditions: no additive; ATP 1.5 uM, peptide 50 uM, 20 minutes, room temperature; read-out: Ic50 h-jak3(810-1124)-sf9-c: no additive
T1 construct: jak3(810- 1124)-sf9-c; made in house; host or cells: Sf9
T1 sequence (P52333 810-1124): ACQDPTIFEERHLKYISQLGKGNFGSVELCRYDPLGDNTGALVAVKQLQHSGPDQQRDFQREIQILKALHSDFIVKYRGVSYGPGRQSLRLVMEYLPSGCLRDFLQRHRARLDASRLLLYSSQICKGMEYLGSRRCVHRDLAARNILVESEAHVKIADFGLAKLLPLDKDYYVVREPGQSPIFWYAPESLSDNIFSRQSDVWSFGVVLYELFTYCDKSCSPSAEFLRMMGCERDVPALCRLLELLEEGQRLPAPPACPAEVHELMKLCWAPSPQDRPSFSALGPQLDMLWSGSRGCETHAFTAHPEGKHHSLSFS

| Structure (SMILES) | melting point | IC50 [1] |
| --- | --- | --- |
| Cc1nc(-c2cnc3[nH]cc(C(=O)N[C@@H](C(=O)N4CC(C#N)C4)C4CC4)c3n2)cn1-c1ccccc1 | 175 to 179 °C |  |
| CC(C)(C)[C@@H](NC(=O)c1c[nH]c2ncc(C3CC3)nc12)C(=O)N1CCCC1 [Example 1, 2-Cyclopropyl-5H-pyrrolo[2,3-b]pyrazine-7-carboxylic acid [(R)-2,2-dimethyl-1-(pyrrolidine-1-carbonyl)-propyl]-amide] | 201 to 203 °C |  |
| CCn1cc(-c2cnc3[nH]cc(C(=O)N[C@@H](C(=O)N4CCCC4)C4CC4)c3n2)cn1 [Example 4, 2-(1-Ethyl-1H-pyrazol-4-yl)-5H-pyrrolo[2,3-b]pyrazine-7-carboxylic acid ((R)-1-cyclopropyl-2-oxo-2-pyrrolidin-1-yl-ethyl)-amide] | 210 to 212 °C |  |
| CC(C)(C)[C@@H](NC(=O)c1c[nH]c2ncc(C3CC3)nc12)C(=O)N1CCC(C#N)CC1 [Example 11, 2-Cyclopropyl-5H-pyrrolo[2,3-b]pyrazine-7-carboxylic acid [(R)-1-(4-cyano-piperidine-1-carbonyl)-2,2-dimethyl-propyl]-amide] | 249 to 251 °C |  |
| CCn1cc(-c2cnc3[nH]cc(C(=O)N[C@@H](C(=O)N4CCC(C)(O)CC4)C(C)(C)C)c3n2)cn1 [Example I-140, 2-(1-Ethyl-1H-pyrazol-4-yl)-5H-pyrrolo[2,3-b]pyrazine-7-carboxylic acid [(R)-1-(4-hydroxy-4-methyl-piperidine-1-carbonyl)-2,2-dimethyl-propyl]-amide] |  | 0.68 nM |
| Cn1cc(-c2cnc3[nH]cc(C(=O)N[C@@H](C(=O)N4CC(C)(C#N)C4)C4CC4)c3n2)cn1 [Example I-142, 2-(1-Methyl-1H-pyrazol-4-yl)-5H-pyrrolo[2,3-b]pyrazine-7-carboxylic acid [(R)-2-(3-cyano-3-methyl-azetidin-1-yl)-1-cyclopropyl-2-oxo-ethyl]-amide] |  | 0.47 nM |
| Cn1cc(-c2cnc3[nH]cc(C(=O)N[C@@H](C(=O)N4CC(C)(C#N)C4)C(C)(C)C)c3n2)cn1 [Example I-143, 2-(1-Methyl-1H-pyrazol-4-yl)-5H-pyrrolo[2,3-b]pyrazine-7-carboxylic acid [(R)-1-(3-cyano-3-methyl-azetidine-1-carbonyl)-2,2-dimethyl-propyl]-amide] |  | 0.42 nM |
| CCn1cc(-c2cnc3[nH]cc(C(=O)N[C@@H](C(=O)N4CCC(F)(F)CC4)C4CC4)c3n2)cn1 [Example I-144, 2-(1-Ethyl-1H-pyrazol-4-yl)-5H-pyrrolo[2,3-b]pyrazine-7-carboxylic acid [(R)-1-cyclopropyl-2-(4,4-difluoro-piperidin-1-yl)-2-oxo-ethyl]-amide] |  | 0.62 nM |
| CC(C)(C)c1ccnc(-c2cnc3[nH]cc(C(=O)N[C@@H](C(=O)N4CCC(C#N)CC4)C4CC4)c3n2)c1 [Example I-145, 2-(4-tert-Butyl-pyridin-2-yl)-5H-pyrrolo[2,3-b]pyrazine-7-carboxylic acid [(R)-2-(4-cyano-piperidin-1-yl)-1-cyclopropyl-2-oxo-ethyl]-amide] |  | 15.2 nM |
| CCn1cc(-c2cnc3[nH]cc(C(=O)N[C@@H](C(=O)N4CCC(O)(C(F)(F)F)CC4)C4CC4)c3n2)cn1 [Example I-146, 2-(1-Ethyl-1H-pyrazol-4-yl)-5H-pyrrolo[2,3-b]pyrazine-7-carboxylic acid [(R)-1-cyclopropyl-2-(4-hydroxy-4-trifluoromethyl-piperidin-1-yl)-2-oxo-ethyl]-amide] |  | 0.38 nM |
| N#CC1CCN(C(=O)[C@H](NC(=O)c2c[nH]c3ncc(-c4cc(-c5ccccc5)ccn4)nc23)C2CC2)CC1 [Example I-147, 2-(4-Phenyl-pyridin-2-yl)-5H-pyrrolo[2,3-b]pyrazine-7-carboxylic acid [(R)-2-(4-cyano-piperidin-1-yl)-1-cyclopropyl-2-oxo-ethyl]-amide] |  | 4.46 nM |
| CCn1cc(-c2cnc3[nH]cc(C(=O)N[C@@H](C(=O)N4CC(C)(O)C4)C4CC4)c3n2)cn1 [Example I-148, 2-(1-Ethyl-1H-pyrazol-4-yl)-5H-pyrrolo[2,3-b]pyrazine-7-carboxylic acid [(R)-1-cyclopropyl-2-(3-hydroxy-3-methyl-azetidin-1-yl)-2-oxo-ethyl]-amide] |  | 1.98 nM |
| CC[C@@H](C)[C@@H](NC(=O)c1c[nH]c2ncc(C3CC3)nc12)C(=O)N1CCC(C#N)CC1 [Example I-149, 2-Cyclopropyl-5H-pyrrolo[2,3-b]pyrazine-7-carboxylic acid [(1R,2R)-1-(4-cyano-piperidine-1-carbonyl)-2-methyl-butyl]-amide] |  | 1.27 nM |
| Cn1cc(-c2cnc3[nH]cc(C(=O)N[C@@H](C(=O)N4CC(F)(F)C4)C4CC4)c3n2)cn1 [Example I-150, 2-(1-Methyl-1H-pyrazol-4-yl)-5H-pyrrolo[2,3-b]pyrazine-7-carboxylic acid [(R)-1-cyclopropyl-2-(3,3-difluoro-azetidin-1-yl)-2-oxo-ethyl]-amide] |  | 2 nM |
| CCC1(C#N)CN(C(=O)[C@H](NC(=O)c2c[nH]c3ncc(-c4cnn(C)c4)nc23)C2CC2)C1 [Example I-151, 2-(1-Methyl-1H-pyrazol-4-yl)-5H-pyrrolo[2,3-b]pyrazine-7-carboxylic acid [(R)-2-(3-cyano-3-ethyl-azetidin-1-yl)-1-cyclopropyl-2-oxo-ethyl]-amide] |  | ≤ 0.32 nM |
| C[C@@H](NC(=O)c1c[nH]c2ncc(-c3cc(-n4cccn4)ccn3)nc12)C(=O)N1CC(C#N)C1 [Example I-152, 2-(4-Pyrazol-1-yl-pyridin-2-yl)-5H-pyrrolo[2,3-b]pyrazine-7-carboxylic acid [(R)-2-(3-cyano-azetidin-1-yl)-1-methyl-2-oxo-ethyl]-amide] |  | 9.52 nM |
| C[C@@H](NC(=O)c1c[nH]c2ncc(-c3cc(-n4cccc4)ccn3)nc12)C(=O)N1CC(C#N)C1 [Example I-153, 2-(4-Pyrrol-1-yl-pyridin-2-yl)-5H-pyrrolo[2,3-b]pyrazine-7-carboxylic acid [(R)-2-(3-cyano-azetidin-1-yl)-1-methyl-2-oxo-ethyl]-amide] |  | 9.02 nM |
| N#CC1CCN(C(=O)[C@H](NC(=O)c2c[nH]c3ncc(-c4cc(-c5cccs5)ccn4)nc23)C2CC2)CC1 [Example I-154, 2-(4-Thiophen-2-yl-pyridin-2-yl)-5H-pyrrolo[2,3-b]pyrazine-7-carboxylic acid [(R)-2-(4-cyano-piperidin-1-yl)-1-cyclopropyl-2-oxo-ethyl]-amide] |  | 3.06 nM |
| CNC(=O)c1ccnc(-c2cnc3[nH]cc(C(=O)N[C@H](C)C(=O)N4CC(C#N)C4)c3n2)c1 [Example I-155, 2-(4-Methylcarbamoyl-pyridin-2-yl)-5H-pyrrolo[2,3-b]pyrazine-7-carboxylic acid [(R)-2-(3-cyano-azetidin-1-yl)-1-methyl-2-oxo-ethyl]-amide] |  | 10.5 nM |
| CC(C)(C)[C@@H](NC(=O)c1c[nH]c2ncc(-c3cnc(Cl)s3)nc12)C(=O)N1CCC(C#N)CC1 [Example I-156, 2-(2-Chloro-thiazol-5-yl)-5H-pyrrolo[2,3-b]pyrazine-7-carboxylic acid [(R)-1-(4-cyano-piperidine-1-carbonyl)-2,2-dimethyl-propyl]-amide] |  | 5.97 nM |
| Cc1nc(-c2cnc3[nH]cc(C(=O)N[C@@H](C(=O)N4CC(C#N)C4)C(C)(C)C)c3n2)cn1-c1cc(F)cc(F)c1 [Example I-157, 2-[1-(3,5-Difluoro-phenyl)-2-methyl-1H-imidazol-4-yl]-5H-pyrrolo[2,3-b]pyrazine-7-carboxylic acid [(R)-1-(3-cyano-azetidine-1-carbonyl)-2,2-dimethyl-propyl]-amide] |  | 3.28 nM |
| Cc1nc(-c2cnc3[nH]cc(C(=O)N[C@@H](C(=O)N4CC(C#N)C4)C(C)(C)C)c3n2)cn1-c1cccc(F)c1 [Example I-158, 2-[1-(3-Fluoro-phenyl)-2-methyl-1H-imidazol-4-yl]-5H-pyrrolo[2,3-b]pyrazine-7-carboxylic acid [(R)-1-(3-cyano-azetidine-1-carbonyl)-2,2-dimethyl-propyl]-amide] |  | 2.34 nM |
| Cc1nc(-c2cnc3[nH]cc(C(=O)N[C@@H](C(=O)N4CC(C#N)C4)C4CC4)c3n2)cn1-c1ccccc1 [Example I-159, 2-(2-Methyl-1-phenyl-1H-imidazol-4-yl)-5H-pyrrolo[2,3-b]pyrazine-7-carboxylic acid [(R)-2-(3-cyano-azetidin-1-yl)-1-cyclopropyl-2-oxo-ethyl]-amide] |  | 2.66 nM |
| N#CC1CN(C(=O)[C@H](NC(=O)c2c[nH]c3ncc(-c4ccc(C(F)(F)F)cc4)nc23)C2CC2)C1 [Example I-160, 2-(4-Trifluoromethyl-phenyl)-5H-pyrrolo[2,3-b]pyrazine-7-carboxylic acid [(R)-2-(3-cyano-azetidin-1-yl)-1-cyclopropyl-2-oxo-ethyl]-amide] |  | 0.38 nM |
| CC(=O)N1CCN(c2ccc(-c3cnc4[nH]cc(C(=O)N[C@@H](C(=O)N5CC(C#N)C5)C5CC5)c4n3)cc2)CC1 [Example I-161, 2-[4-(4-Acetyl-piperazin-1-yl)-phenyl]-5H-pyrrolo[2,3-b]pyrazine-7-carboxylic acid [(R)-2-(3-cyano-azetidin-1-yl)-1-cyclopropyl-2-oxo-ethyl]-amide] |  | ≤ 0.32 nM |
| N#CC1CN(C(=O)[C@H](NC(=O)c2c[nH]c3ncc(-c4ccc(N5CCOCC5)cc4)nc23)C2CC2)C1 [Example I-163, 2-(4-Morpholin-4-yl-phenyl)-5H-pyrrolo[2,3-b]pyrazine-7-carboxylic acid [(R)-2-(3-cyano-azetidin-1-yl)-1-cyclopropyl-2-oxo-ethyl]-amide] |  | ≤ 0.32 nM |
| CN(C)c1ccc(-c2cnc3[nH]cc(C(=O)N[C@@H](C(=O)N4CC(C#N)C4)C4CC4)c3n2)cc1 [Example I-164, 2-(4-Dimethylamino-phenyl)-5H-pyrrolo[2,3-b]pyrazine-7-carboxylic acid [(R)-2-(3-cyano-azetidin-1-yl)-1-cyclopropyl-2-oxo-ethyl]-amide] |  | ≤ 0.32 nM |
| N#CC1CN(C(=O)[C@H](NC(=O)c2c[nH]c3ncc(-c4ccccc4)nc23)C2CC2)C1 [Example I-166, 2-Phenyl-5H-pyrrolo[2,3-b]pyrazine-7-carboxylic acid [(R)-2-(3-cyano-azetidin-1-yl)-1-cyclopropyl-2-oxo-ethyl]-amide] |  | ≤ 0.32 nM |
